Data as given in patent US20250215008A1, “PREPARATION AND USE OF QUINAZOLINONE DERIVATIVE AS KINASE INHIBITOR” (Haisco Pharmaceutical Group Co., Ltd., priority 2022, published 2025).
Where two headings read alike, the source gives them in different places.

Key:
[1] = test system: A375 cells; test: A375 cell proliferation inhibition; assay type: cell-based; conditions: read-out: IC50/nM, inhibitory activity on A375 cells
Description: A375 cells (ATCC, CRL-1619) were cultured in DMEM complete medium (+10% FBS) in a CO2 incubator at 37° C. for 48 h. The cells were trypsinized and counted, and then the density was adjusted to 1.67×10^4 cells/mL. 90 μL (1500 cells) of cells were inoculated into each well of a 96-well transparent bottom plate, and the plate was transferred to a CO2 incubator and the cells were cultured overnight at 37° C. After the cells were incubated overnight, 10 μL of the diluted compound (final concentration starting from 10 μM, 3-fold dilution, 11 concentrations) was added to each well using a multi-channel pipette. The positive control was a serum-free medium containing DMSO. After mixing evenly, the cells were placed in a CO2 incubator at 37° C. for 72 h. After the incubation, the CellCounting-Lite®2.0 kit detection solution (Vazyme, DD1101-03) was taken out and returned to room temperature. 100 μL of CellCounting-Lite2.0 detection solution was added to each well, the plate was sealed with a sealing film, and the plate was placed on a shaker for shaking for 15 min (the whole process should be kept away from light). The Luminescence module of the microplate reader (BMG LRBTECH) was used to detect the fluorescence signal value LUM of each well. The formula
[formula] • was used to calculate the inhibition rate of the compound. The Graphpad software log (inhibitor) vs. response—Variable slope (four parameters) equation was used to perform fitting analysis and calculate the IC50 value of the sample. The ordinate of the data is the percentage of inhibition rate, and the abscissa is the logarithm of the sample concentration (Log10).

[2] = Mouse pharmacokinetic test; assay type: in vivo, ICR mice; conditions: for Kp: brain/plasma, read-out: brain/plasma ratio; for Vd: read-out: Vdss
Description: (§1) • 1.1 Experimental animals: male ICR mice, 20-25 g, 12 mice/compound, purchased from Chengdu Ddossy Experimental Animals Co., Ltd. • 1.2 Experimental design: on the day of the test, 12 ICR mice were randomly grouped according to their body weights. The animals were fasted with water available for 12 to 14 h one day before the administration and were fed 4 h after the administration.
Before and after administration, 0.06 mL of blood was taken from the orbit under isoflurane anesthesia and placed in an EDTAK2 centrifuge tube for centrifugation at 5000 rpm at 4° C. for 10 min, followed by plasma collection. The blood collection time points for the intravenous administration group and intragastric administration group were 0, 5 min, 15 min, 30 min, 1 h, 2 h, 4 h, 7 h and 24 h. Before analysis and detection, all samples were stored at −80° C., and a quantitative analysis of samples was performed using LC-MS/MS.

[3] = Beagle dog pharmacokinetic test; assay type: in vivo, beagle dogs; conditions: for F: beagle dog
Description: • Experimental animals: male beagle dogs, about 8-11 kg, 6 beagle dogs/compound, purchased from Beijing Marshall Biotechnology Co., Ltd. • Experimental method: on the day of the experiment, 6 beagle dogs were randomly grouped according to their body weights. The animals were fasted with water available for 12 to 14 h one day before the administration and were fed 4 h after the administration. Administration was performed as per Table 1.
(DMA: dimethylacetamide; Solutol: polyethylene glycol-15-hydroxystearate; Saline: physiological saline; MC: Methylcellulose solution) Before and after the administration, 1 ml of blood was taken from the jugular veins or limb veins, and placed in an EDTAK2 centrifuge tube. Centrifugation was performed at 5000 rpm at 4° C. for 10 min, and plasma was collected. The blood collection time points for the intravenous group and intragastric group were both 0 min, 5 min, 15 min, 30 min, 1 h, 2 h, 4 h, 6 h, 8 h, 10 h, 12 h, 24 h, 48 h, and 72 h. Before analysis and detection, all samples were stored at −80° C. The samples were analyzed quantitatively by LC-MS/MS.

[4] = Rat pharmacokinetic test; assay type: in vivo, SD rats
Description: as §1, with “5.1” for “1.1”, “SD rats, about 220” for “ICR mice, 20-25”, “6-8 weeks old, 6 rats/compound,” for “12 mice/compound,”, “5.2” for “1.2”, “experiment, 6 SD rats” for “test, 12 ICR mice”, “weights; the” for “weights. The”
Before and after the administration, 0.1 ml of blood was taken from the orbit of the animals under isoflurane anesthesia and placed in an EDTAK2 centrifuge tube. The blood was centrifuged at 5000 rpm and 4° C. for 10 min to collect plasma. Blood sampling time points for the intravenous administration group: 0, 5 min, 15 min, 30 min, 1 h, 2 h, 4 h, 6 h, 8 h, and 24 h; blood sampling time points for the intragastric administration group: 0, 5 min, 15 min, 30 min, 1 h, 2 h, 4 h, 6 h, 8 h and 24 h. Before analysis and detection, all samples were stored at −80° C.

[5] = biological target: BCRP (Homo sapiens (Human), UniProt Q9UNQ0); conditions: cited from earlier work
[6] = biological target: MDR1 (Homo sapiens (Human), UniProt P08183); conditions: cited from earlier work
[7] = in vivo; cited from earlier work
[8] = male, ICR, po, mouse, i.g. 10 mg/kg
[9] = male, ICR, iv, mouse plasma, i.v. 2.5 mg/kg
[10] = male, ICR, iv, mouse plasma, i.v. 2.5 mg/kg, read-out: AUC0-t
[11] = male, ICR, po, mouse plasma, i.g. 10 mg/kg
[12] = male, ICR, po, mouse plasma, i.g. 10 mg/kg, read-out: AUC0-t
[13] = beagle dog plasma, i.v. 0.5 mg/kg
[14] = rat plasma, intragastric administration 10 mg/kg
[15] = rat plasma, intravenous administration 2.5 mg/kg

Chain of MDR1 (P08183 whole entry, species assumed): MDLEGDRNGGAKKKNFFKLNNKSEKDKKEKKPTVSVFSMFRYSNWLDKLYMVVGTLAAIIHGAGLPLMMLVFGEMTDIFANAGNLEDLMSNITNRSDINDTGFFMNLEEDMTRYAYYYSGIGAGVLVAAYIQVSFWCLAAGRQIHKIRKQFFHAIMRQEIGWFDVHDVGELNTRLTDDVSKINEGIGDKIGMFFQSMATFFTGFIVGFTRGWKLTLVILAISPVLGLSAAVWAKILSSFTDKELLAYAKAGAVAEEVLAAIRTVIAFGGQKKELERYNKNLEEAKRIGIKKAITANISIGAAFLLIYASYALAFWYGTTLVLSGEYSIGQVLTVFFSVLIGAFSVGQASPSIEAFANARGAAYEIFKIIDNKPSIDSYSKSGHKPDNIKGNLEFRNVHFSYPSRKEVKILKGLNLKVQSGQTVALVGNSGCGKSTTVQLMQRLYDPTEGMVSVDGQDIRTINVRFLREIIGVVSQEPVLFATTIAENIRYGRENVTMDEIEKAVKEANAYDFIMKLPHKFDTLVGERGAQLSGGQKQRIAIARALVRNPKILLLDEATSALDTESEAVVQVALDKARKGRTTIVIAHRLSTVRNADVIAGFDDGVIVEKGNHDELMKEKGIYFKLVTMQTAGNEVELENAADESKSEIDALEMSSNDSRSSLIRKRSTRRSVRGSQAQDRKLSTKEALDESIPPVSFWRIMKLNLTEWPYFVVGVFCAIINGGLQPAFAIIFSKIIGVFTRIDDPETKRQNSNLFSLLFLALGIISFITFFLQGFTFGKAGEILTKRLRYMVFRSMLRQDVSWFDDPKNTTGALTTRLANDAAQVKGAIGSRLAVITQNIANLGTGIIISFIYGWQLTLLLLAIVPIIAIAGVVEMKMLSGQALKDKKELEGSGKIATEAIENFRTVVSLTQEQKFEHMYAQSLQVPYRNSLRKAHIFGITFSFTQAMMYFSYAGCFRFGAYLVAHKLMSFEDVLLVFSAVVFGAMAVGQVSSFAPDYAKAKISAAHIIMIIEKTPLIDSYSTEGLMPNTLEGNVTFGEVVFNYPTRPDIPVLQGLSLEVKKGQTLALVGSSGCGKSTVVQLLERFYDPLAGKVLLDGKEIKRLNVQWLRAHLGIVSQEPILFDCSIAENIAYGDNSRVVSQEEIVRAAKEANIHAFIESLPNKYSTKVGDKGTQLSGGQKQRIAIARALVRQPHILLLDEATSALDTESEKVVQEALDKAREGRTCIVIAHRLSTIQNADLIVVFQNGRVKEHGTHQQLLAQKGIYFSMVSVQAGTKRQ
Chain of BCRP (Q9UNQ0 whole entry, species assumed): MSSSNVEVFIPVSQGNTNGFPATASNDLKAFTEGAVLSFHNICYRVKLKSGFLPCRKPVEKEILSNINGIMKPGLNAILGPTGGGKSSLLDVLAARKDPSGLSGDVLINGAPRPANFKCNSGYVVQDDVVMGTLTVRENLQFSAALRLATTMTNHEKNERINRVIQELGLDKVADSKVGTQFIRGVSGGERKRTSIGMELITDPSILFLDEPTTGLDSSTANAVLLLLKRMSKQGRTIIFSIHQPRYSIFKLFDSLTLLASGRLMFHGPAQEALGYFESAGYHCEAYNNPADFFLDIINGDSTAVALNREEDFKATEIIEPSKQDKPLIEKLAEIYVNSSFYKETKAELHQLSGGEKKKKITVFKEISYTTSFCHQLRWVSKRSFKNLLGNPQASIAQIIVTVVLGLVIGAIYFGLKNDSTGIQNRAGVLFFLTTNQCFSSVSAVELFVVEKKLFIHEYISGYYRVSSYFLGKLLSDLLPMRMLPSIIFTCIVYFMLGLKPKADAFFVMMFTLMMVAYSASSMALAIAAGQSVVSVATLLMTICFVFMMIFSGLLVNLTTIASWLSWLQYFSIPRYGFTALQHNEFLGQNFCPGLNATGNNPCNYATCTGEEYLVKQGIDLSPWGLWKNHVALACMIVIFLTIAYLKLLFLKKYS

| Structure (SMILES) | IC50 ([1]; 72 h) [nM] | IC50 ([1]; Homo sapiens, A-375, 72 h) [nM] | Kp [2, 8] | clearance [2, 9] [mL/min/kg] | half-life [2, 9] [h] | AUC(0-t) [2, 10] [µg·h/mL] | Vd [2, 9] [L/kg] | half-life [2, 11] [h] | AUC(0-t) [2, 12] [µg·h/mL] | F ([2]; mouse, i.g. 10 mg/kg) [%] | also measured |
| --- | --- | --- | --- | --- | --- | --- | --- | --- | --- | --- | --- |
| N#Cc1c(NS(=O)(=O)N2CC3(CCC3F)C2)ccc(F)c1Oc1ccc2ncn(CC(F)F)c(=O)c2c1 (single isomer, unassigned) [Compound 40] | ≤ 10 |  |  |  |  |  |  |  |  |  |  |
| COn1cnc2ccc(Oc3c(F)ccc(NS(=O)(=O)N4CC[C@@H](F)C4)c3C#N)cc2c1=O [Compound 4] |  | ≤ 10 | 0.053 | 0.37 | 5.27 | 107 | 0.147 | 4.02 | 282 |  |  |
| Cn1cnc2ccc(Oc3c(F)ccc(NS(=O)(=O)N4CC5(CC5)C4)c3C#N)cc2c1=O [Compound 5] |  | ≤ 10 | 0.0181 | 0.0627 | 30.2 | 290 | 0.159 | 19.2 | 1080 | 93.6 |  |
| COn1cnc2ccc(Oc3c(F)ccc(NS(=O)(=O)N4CC5(CCC5)C4)c3C#N)cc2c1=O [Compound 7] |  |  | 0.0425 | 0.144 | 9.79 | 240 | 0.111 | 13.7 | 792 | 92.6 |  |
| COn1cnc2ccc(Oc3c(F)ccc(NS(=O)(=O)N4CC5(CC5)C4)c3C#N)cc2c1=O [Compound 8] |  |  | 0.0173 | 0.147 | 8.59 | 247 | 0.0941 | 12.9 | 1300 | ≥98 |  |
| N#Cc1c(NS(=O)(=O)N2CC3(CCC3)C2)ccc(F)c1Oc1ccc2ncn(CC(F)F)c(=O)c2c1 [Compound 10] |  | ≤ 10 | 0.0107 | 0.117 | 12 | 272 | 0.111 | 11.8 | 914 | 83.9 | F ([3]; i.g. 3 mg/kg): 79.7%; clearance ([3]; male, iv, beagle dog plasma, i.v. 0.5 mg/kg): 0.425 mL/min/kg; AUC(0-t) ([3]; male, iv, beagle dog plasma, i.v. 0.5 mg/kg, read-out: AUC0-t): 40.9 µg·h/mL; Vd ([3]; male, iv, beagle dog plasma, i.v. 0.5 mg/kg, read-out: Vdss): 0.155 L/kg; AUC(0-t) ([3]; male, po, beagle dog plasma, i.g. 3 mg/kg, read-out: AUC0-t): 97.8 µg·h/mL |
| Cn1cnc2ccc(Oc3c(F)ccc(NS(=O)(=O)N4CC(CF)C4)c3C#N)cc2c1=O [Compound 14] |  | ≤ 10 |  |  |  |  |  |  |  |  |  |
| Cn1cnc2ccc(Oc3c(F)ccc(NS(=O)(=O)N4CCC5CC54)c3C#N)cc2c1=O (centres unmarked) [Compound 17] |  | ≤ 10 |  |  |  |  |  |  |  |  |  |
| N#Cc1c(NS(=O)(=O)N2CC3(CCC3)C2)ccc(F)c1Oc1ccc2ncn3ccnc3c2c1 [Compound 22] |  | ≤ 10 |  |  |  |  |  |  |  |  |  |
| N#Cc1c(NS(=O)(=O)N2CC3(CCC3)C2)ccc(F)c1Oc1ccc2ncn(CCF)c(=O)c2c1 [Compound 26] |  | ≤ 10 | 0.0179 | 0.119 | 12.8 | 266 | 0.114 | 8.68 | 832 | 78.1 |  |
| N#Cc1c(NS(=O)(=O)N2CC3(CCC3)C2)ccc(F)c1Oc1ccc2ncn(C3COC3)c(=O)c2c1 [Compound 33] | ≤ 10 |  |  |  |  |  |  |  |  |  |  |
| N#Cc1c(NS(=O)(=O)N2CC3(CCC3)C2)cc(F)c(F)c1Oc1ccc2ncn(CCF)c(=O)c2c1 [Compound 39] | ≤ 10 |  |  |  |  |  |  |  |  |  | AUC(0-t) ([3]; beagle dog plasma, i.g. 3 mg/kg): 84.281 µg·h/mL; AUC(0-t) [3, 13]: 31.095 µg·h/mL; CL [3, 13]: 0.541 mL/min/kg; Vdss [3, 13]: 0.08 L/kg; F ([3]; i.g. 3 mg/kg): 90.3% |
| N#Cc1c(NS(=O)(=O)N2CC3(CCC3(F)F)C2)ccc(F)c1Oc1ccc2ncn(CC(F)F)c(=O)c2c1 [Compound 42] | ≤ 10 |  |  |  |  |  |  |  |  |  |  |
| Cc1cnc2c3cc(Oc4c(F)ccc(NS(=O)(=O)N5CC6(CCC6)C5)c4C#N)ccc3ncn12 [Compound 44] | ≤ 10 |  |  |  |  |  |  |  |  | 87.9 | AUC(0-t) ([2]; mouse plasma, i.g. 10 mg/kg): 442.783 µg·h/mL; T1/2 ([2]; mouse plasma, i.g. 10 mg/kg): 14.2 h; AUC(0-t) ([2]; mouse plasma, i.v. 2.5 mg/kg): 125.977 µg·h/mL; CL ([2]; mouse plasma, i.v. 2.5 mg/kg): 0.335 mL/min/kg; T1/2 ([2]; mouse plasma, i.v. 2.5 mg/kg): 7.5 h; Vdss ([2]; mouse plasma, i.v. 2.5 mg/kg): 0.135 L/kg; brain/plasma ratio ([2]; mouse, i.g. 10 mg/kg): 0.0162 |
| N#Cc1c(NS(=O)(=O)N2CC3(CCC3)C2)cc(F)c(F)c1Oc1ccc2ncn3ccnc3c2c1 [Compound 46] | ≤ 10 |  |  |  |  |  |  |  |  |  |  |
| N#Cc1c(NS(=O)(=O)N2CC3(CC3)C2)ccc(F)c1Oc1ccc2ncn(CCF)c(=O)c2c1 [Compound 47] | ≤ 10 |  |  |  |  |  |  |  |  |  | AUC(0-t) [4, 14]: 4256.852 µg·h/mL; T1/2 [4, 14]: 60.6 h; AUC(0-t) [4, 15]: 1156.844 µg·h/mL; CL [4, 15]: 0.036 mL/min/kg; T1/2 [4, 15]: 50.9 h; Vdss [4, 15]: 0.156 L/kg; F ([4]; rat, intragastric administration 10 mg/kg): 92% |
| N#Cc1c(NS(=O)(=O)N2CC3(CC3)C2)ccc(F)c1Oc1ccc2ncn3ccnc3c2c1 [Compound 49] | ≤ 10 |  |  |  |  |  |  |  |  |  |  |
| N#Cc1c(NS(=O)(=O)N2CC3(CC3)C2)cc(F)c(F)c1Oc1ccc2ncn(CCF)c(=O)c2c1 [Compound 50] | ≤ 10 |  |  |  |  |  |  |  |  |  |  |
| N#Cc1c(NS(=O)(=O)N2CC[C@@H](F)C2)cc(F)c(F)c1Oc1ccc2ncn(CCF)c(=O)c2c1 [Compound 51] | ≤ 10 |  |  |  |  |  |  |  |  |  |  |
| CCCS(=O)(=O)Nc1ccc(F)c(C(=O)c2c[nH]c3ncc(-c4ccc(Cl)cc4)cc23)c1F [Vemurafenib] |  |  |  |  |  |  |  |  |  |  | BCRP efflux ratio [5]: 495; MDR1 efflux ratio [6]: 83; total brain-to-plasma ratio [7]: 0.004 |
